Series [1] has as its system rat. The note with it: Subchronic oral toxicity in rodents, sprague dawley, Water, dose end: 90 day, group: systemic.
The subject of series [2] is rat. The note with it: Combined chronic toxicity/carcinogenicity, sprague dawley, Oral, Feed, dose end: 2 year, group: systemic.
The test system of series [3] is rabbit. The note with it: Prenatal developmental toxicity study, new zealand white, Oral, Gavage/Intubation, dose end: 18 GD.
Series [4] concerns rat. The note with it: Multigenerational reproductive toxicity study, CRL:CD BR/VAF/PLUS, Oral, Feed, dose end: 2 generation.
For series [5], the system named is rat. The note with it: Subchronic oral toxicity in rodents, sprague dawley, Feed, dose end: 13 week.
Series [6] concerns mouse. Conditions: Carcinogenicity, cd1, Oral, Feed, dose end: 99 week, group: systemic.
Series [7] concerns dog. Conditions: Chronic toxicity, beagle, Oral, Feed, dose end: 52 week, group: systemic.
The subject of series [8] is rat. The note with it: Subchronic oral toxicity in rodents, other, Feed, dose end: 90 day, group: systemic, systemic / in life observation / food consumption / food consumption.
The subject of series [9] is dog. The note with it: Subchronic oral toxicity in nonrodent, beagle, Capsule, dose end: 90 day, group: systemic, systemic / clinical chemistry / alkaline phosphatase (alp/alk) / alkaline phosphatase (alp/alk) + systemic / pathology microscopic / liver….
Series [10] concerns mouse. Conditions: Carcinogenicity, cd1, Oral, Feed, dose end: 18 month, group: systemic.
The test system of series [11] is rat. Conditions: Combined chronic toxicity/carcinogenicity, other, Oral, Feed, dose end: 24 month, group: systemic.
For series [12], the system named is rat. The note with it: Subchronic oral toxicity in rodents, sprague dawley, Feed, dose end: 3 month, group: systemic, systemic / organ weight / liver / relative to body weight + systemic / pathology microscopic / liver / hypertrophy + systemic / pathology ….
Series [13] concerns dog. The note with it: Chronic toxicity, beagle, Oral, Feed, dose end: 52 week, group: systemic. This is another data set of the same source.
The test system of series [14] is mouse. Conditions: Subchronic oral toxicity in rodents, cd1, Feed, dose end: 13 week, group: systemic, systemic / in life observation / body weight / body weight gain.
For series [15], the system named is dog. The note with it: Subchronic oral toxicity in nonrodent, beagle, Feed, dose end: 13 week, group: systemic, systemic / in life observation / body weight / body weight gain.
Series [16] deals with rat. The note with it: Subchronic oral toxicity in rodents, sprague dawley, Gavage/Intubation, dose end: 90 day, group: systemic.
Setting [17] is: systemic / clinical chemistry / cholesterol / cholesterol + systemic / in life observation / mortality / mortality + systemic / pathology ….
Where [18] appears, read: systemic / pathology microscopic / adrenal gland / vacuolization + systemic / organ weight / thyroid gland / relative to body weight + ….
Where [19] appears, read: group: developmental, developmental / developmental malformation / bone / delayed ossification + developmental / developmental malformation / bone / full ….
The mark [20] stands for this setting: group: maternal, systemic / in life observation / body weight / body weight gain.
[21] abbreviates: group: maternal, systemic / in life observation / body weight / body weight gain + reproductive / reproductive performance / aborted / aborted + reproductive….
Where [22] appears, read: group: offspring, developmental / offspring survival late / lactation index / lactation index + developmental / offspring survival late / [other] / [other] + ….
Setting [23] is: group: parental, systemic / in life observation / body weight / body weight gain + systemic / in life observation / food consumption / food consumption.
[24] abbreviates: group: parental, systemic / in life observation / body weight / body weight gain + systemic / in life observation / food consumption / food consumption + ….
Where [25] appears, read: group: maternal, reproductive / reproductive performance / estrous cycle / corpora lutea.
Where [26] appears, read: group: systemic, systemic / in life observation / body weight / body weight + systemic / in life observation / food consumption / food consumption + systemic….
The mark [27] stands for this setting: group: systemic, systemic / organ weight / liver / nos.
Setting [28] is: systemic / pathology microscopic / testes / hypertrophy + systemic / pathology microscopic / testes / vacuolization + systemic / pathology ….
[29] abbreviates: systemic / hematology / heinz body / heinz body + systemic / organ weight / prostate / absolute.
Where [30] appears, read: systemic / hematology / heinz body / heinz body + systemic / organ weight / prostate / absolute + systemic / clinical chemistry / alanine ….
Setting [31] is: systemic / hematology / lymphocyte / lymphocyte + systemic / organ weight / kidney / nos + systemic / organ weight / testes / nos + systemic….
[32] abbreviates: systemic / organ weight / testes / nos.
[33] abbreviates: systemic / clinical chemistry / gamma glutamyl transferase (ggt) / gamma glutamyl transferase (ggt) + systemic / clinical chemistry / ….
Setting [34] is: systemic / hematology / anemia / anemia - hemolytic + systemic / hematology / methemoglobin / methemoglobin + systemic / hematology / ….
[35] abbreviates: systemic / clinical chemistry / globulins / globulins + systemic / clinical chemistry / protein / protein + systemic / hematology / ….
The mark [36] stands for this setting: systemic / in life observation / body weight / body weight + systemic / in life observation / food consumption / food consumption.

On to `CC(Cl)C(Cl)Cl` (stereo not given) [1,1,2-Trichloropropane], for which, in series [1] (setting [17]), the lowest-observed-adverse-effect level (LOAEL) was greater than 50 mg/kg/day, the NEL worked out at 0.5 mg/kg/day and the NOAEL was no less than 50 mg/kg/day. In addition, in series [1] (systemic / in life observation / mortality / mortality), the LEL was 5 mg/kg/day.

For the compound `CC(C)NC(=O)N1CC(=O)N(c2cc(Cl)cc(Cl)c2)C1=O` [Iprodione], the LEL was 6.1 mg/kg/day in series [2] (setting [18]); 200 mg/kg/day in series [3] (setting [19]); 60 mg/kg/day in [3] (setting [20]); 158 mg/kg/day in series [4] (setting [22]); 54.7 mg/kg/day in series [4] (setting [23]); 184 mg/kg/day in series [5] (setting [25]). For the same compound, the LEL in [5] (setting [27]) amounted to 89 mg/kg/day; in series [6] (setting [28]), 115 mg/kg/day; in [7] (setting [29]) it was 24.9 mg/kg/day; in [8], 25 mg/kg/day; in [9] it was 180 mg/kg/day. Besides, the NEL is less than 6.1 mg/kg/day in series [2] (setting [18]); 60 mg/kg/day in series [3] (setting [19]); 20 mg/kg/day in series [3] (setting [21]); 54.7 mg/kg/day in series [4] (setting [22]); 16.5 mg/kg/day in [4] (setting [24]); 89 mg/kg/day in [5] (setting [25]). For the same compound, the NEL is less than 89 mg/kg/day in [5] (setting [27]); 23 mg/kg/day in series [6] (setting [28]); 4.12 mg/kg/day in [7] (setting [30]); 7.5 mg/kg/day in series [8]; 60 mg/kg/day in [9]. Moreover, the LOAEL in [2] (systemic / pathology microscopic / liver / hypertrophy + systemic / organ weight / liver / absolute + systemic / organ weight / liver / …) came out at 12.4 mg/kg/day; in series [3] (setting [19]), 200 mg/kg/day; in series [3] (setting [20]), 60 mg/kg/day; in series [4] (setting [22]), 158 mg/kg/day; in [4] (setting [23]) it was 54.7 mg/kg/day; in series [5] (setting [25]), 184 mg/kg/day. The LOAEL in series [5] (setting [26]) was 151 mg/kg/day; in series [6] (systemic / pathology microscopic / testes / hypertrophy + systemic / pathology microscopic / testes / vacuolization) it was 115 mg/kg/day; in series [7] (setting [29]), 24.9 mg/kg/day; in [8], greater than 50 mg/kg/day; in series [9] it was 180 mg/kg/day. Further, the NOAEL came out at 6.1 mg/kg/day in series [2] (systemic / pathology microscopic / liver / hypertrophy + systemic / pathology microscopic / adrenal gland / rarefaction + systemic / …); 60 mg/kg/day in series [3] (setting [19]); 20 mg/kg/day in series [3] (setting [21]); 54.7 mg/kg/day in series [4] (setting [22]); 16.5 mg/kg/day in series [4] (setting [24]); 89 mg/kg/day in series [5] (setting [25]). Further, the NOAEL in [5] (setting [26]) was 78 mg/kg/day; in [6] (setting [28]), 23 mg/kg/day; in series [7] (setting [30]), 4.12 mg/kg/day; in series [8] it was no less than 50 mg/kg/day; in series [9], 60 mg/kg/day.

In the case of `COc1cccc(C(=O)NN(C(=O)c2cc(C)cc(C)c2)C(C)(C)C)c1C` [Methoxyfenozide], the lowest-observed-adverse-effect level (LOAEL) in series [10] (setting [31]) was greater than 1020 mg/kg/day; in [11] (systemic / in life observation / mortality / mortality + systemic / organ weight / liver / absolute + systemic / organ weight / liver / …) it was 1040 mg/kg/day; in series [12], 353 mg/kg/day; in series [13] (setting [34]), 1150 mg/kg/day; in series [14] it was 1150 mg/kg/day; in [15], greater than 198 mg/kg/day. In addition, the no observed adverse effect level (NOAEL) in series [10] (setting [31]) is no less than 1020 mg/kg/day; in [12], 69.3 mg/kg/day; in series [13] (setting [34]), 106 mg/kg/day; in [14], 428 mg/kg/day; in series [15] it was no less than 198 mg/kg/day. The LEL is 10 mg/kg/day in [10] (setting [32]); 411 mg/kg/day in series [11] (setting [33]); 353 mg/kg/day in series [12]; 106 mg/kg/day in [13] (systemic / hematology / platelet / platelet + systemic / hematology / erythrocyte (rbc) count differential / erythrocyte (rbc)); 1150 mg/kg/day in series [14]; 0.6 mg/kg/day in [15]. Moreover, the NEL in series [10] (setting [32]) was less than 10 mg/kg/day; in series [11] (setting [33]) it was 10.2 mg/kg/day; in [12] it was 69.3 mg/kg/day; in [13] (setting [34]), 9.8 mg/kg/day; in series [14], 428 mg/kg/day; in [15], less than 0.6 mg/kg/day.

Turning to `O=C(O)C(F)(F)C(F)(F)C(F)(F)C(F)(F)C(F)(F)F` [PFHxA], in series [16] (setting [35]), the LOAEL was greater than 200 mg/kg/day and the NOAEL was no less than 200 mg/kg/day. Besides, in series [16] (setting [36]), the LEL worked out at 10 mg/kg/day and the NEL is less than 10 mg/kg/day.

The record behind these values is EPA's ToxRefDB 2.
